These results are taken from patent EP4610269A1, “UROKINASE PLASMINOGEN ACTIVATOR SURFACE RECEPTOR (UPAR) LIGANDS FOR DIAGNOSTIC OR THERAPEUTIC USE” (3B Pharmaceuticals GmbH, priority 2024, dated 2025).

pIC50: −log10 of the molar value. *1 amine or outer side, *2 acyl side, *3 side chain or, on linkers, in order; H or OH if unused. Where a SMILES comes first, the peptide text is derived from it. Bridges are numbered along the chain shown (N, C = ends). [ ]: non-standard residue; d: D form. The star is where a group is joined. DOTA = O=C(O)CN1CCN(CC(=O)O)CCN(CC(=O)*)CCN(CC(=O)O)CC1; NOTA = O=C(O)CN1CCN(CC(=O)O)CCN(CC(=O)*)CC1; Pro(cis-4-F) = O=C(O)[C@@H]1C[C@H](F)CN1; Tyr(3-NH2) = Nc1cc(C[C@H](N)C(=O)O)ccc1O; Dopa = N[C@@H](Cc1ccc(O)c(O)c1)C(=O)O; Hyp = O=C(O)[C@@H]1C[C@@H](O)CN1; Pentanoyl(4-Me) = CC(C)CCC(=O)*; Cit = NC(=O)NCCC[C@H](N)C(=O)O; Butoxycarbonyl = CCCCOC(=O)*; Pip = O=C(O)[C@@H]1CCCCN1; Nle = CCCC[C@H](N)C(=O)O; Orn = NCCC[C@H](N)C(=O)O; Nva = CCC[C@H](N)C(=O)O; Hexanoyl = CCCCCC(=O)*; Pentanoyl = CCCCC(=O)*; CO = O=C([*:1])[*:2]; NHBu = CCCCN*

The target of test [1] is T1, human uPAR (uPAR-Fc) (Homo sapiens, UniProt Q03405).
T1 construct: comprising amino acids Leu23-Arg303 according to UniProt entry Q03405.1; purchased R&D Systems 10378-UK-100
T1 sequence (Q03405 23-303): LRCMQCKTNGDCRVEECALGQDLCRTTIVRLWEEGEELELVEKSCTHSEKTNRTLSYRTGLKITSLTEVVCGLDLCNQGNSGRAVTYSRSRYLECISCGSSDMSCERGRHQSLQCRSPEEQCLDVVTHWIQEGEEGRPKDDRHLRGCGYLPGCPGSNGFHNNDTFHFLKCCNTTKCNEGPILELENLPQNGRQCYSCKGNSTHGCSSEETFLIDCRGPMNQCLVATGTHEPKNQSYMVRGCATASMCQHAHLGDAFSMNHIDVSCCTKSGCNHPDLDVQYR
In words: Surface plasmon resonance (SPR) assay, single cycle kinetics. Format: binding. The note with it: pKD category for uPAR SPR activity assay; uPAR-Fc on Protein A-Chip, 25°C; read-out: pKD CAT (converted). An outline of the steps: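 uPAR-Fc (Leu23-Arg303 extracellular domains, human IgG1 Fc) captured on Protein A chip to ~2000 RU; single-cycle kinetics at 25°C in HEPES running buffer pH 7.4 with 0.1% DMSO. KD from double-referenced sensorgrams fitted to 1:1 Langmuir model, reported as pKD.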
On the technique in general: In SPR one partner is held on a chip, and binding of the other changes the refractive index at the surface.

The target of test [2] is T2, uPAR-expressing HEC-265 human endometrial adenocarcinoma cells (Homo sapiens, UniProt Q03405).
T2 construct: Cell surface uPAR-expressing HEC-265 human endometrial adenocarcinoma cells; host or cells: HEC-265
T2 sequence (Q03405 23-335): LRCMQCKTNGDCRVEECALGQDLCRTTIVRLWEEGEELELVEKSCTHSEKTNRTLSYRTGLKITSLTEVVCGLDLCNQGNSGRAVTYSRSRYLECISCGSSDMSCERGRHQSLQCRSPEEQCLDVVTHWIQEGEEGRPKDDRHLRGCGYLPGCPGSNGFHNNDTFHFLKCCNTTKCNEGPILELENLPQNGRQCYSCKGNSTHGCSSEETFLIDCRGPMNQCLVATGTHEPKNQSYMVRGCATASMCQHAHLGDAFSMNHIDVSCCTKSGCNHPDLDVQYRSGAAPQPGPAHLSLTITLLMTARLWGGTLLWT
In words: Competitive FACS binding assay. To be noted: pIC50 category of FACS binding. An outline of the steps: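 HEC-265 cells incubated 1 h at 4 °C with 10 nM biotinylated uPAR peptide tracer plus increasing test compound, then stained with APC-streptavidin on ice. Median APC fluorescence by flow cytometry; 4PL fit gives pIC50.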

For orientation: pIC50 means the negative decadic logarithm of the IC50, by convention in mol/L. Read a low pIC50 as a large IC50. In the case of `CC[C@H](C)[C@@H]1NC(=O)[C@@H](C)NC(=O)[C@@H]2CCCN2C(=O)[C@H](Cc2ccccc2)NC(=O)[C@H](Cc2ccc(O)cc2)NC(=O)[C@H](CCC(N)=O)NC(=O)[C@@H](C)NC(=O)[C@@H](NC(=O)CCC(C)C)CSSC[C@@H](C(N)=O)NC(=O)[C@H](CC(C)C)NC1=O` [UPAR-231, iHex-[Cys-ala-Gln-Tyr-Phe-Pro-ala-Ile-Leu-Cys]-NH2] ({Pentanoyl(4-Me)}-C[dA]QYFP[dA]ILC-NH2; disulfide 1-10), the Kd in test [1] is 10 to 100 nM. The same compound had a pIC50 in test [2] of 7.00 to 7.40.
The like results for `CC[C@H](C)[C@@H]1NC(=O)[C@@H](C)NC(=O)[C@@H]2CCCCN2C(=O)[C@H](Cc2ccccc2)NC(=O)[C@H](Cc2ccc(O)cc2)NC(=O)[C@H](CCC(N)=O)NC(=O)[C@H](CCCNC(N)=O)NC(=O)[C@@H](NC(=O)CCC(C)C)CSSC[C@@H](C(N)=O)NC(=O)[C@H](CC(C)C)NC1=O` [UPAR-232, iHex-[Cys-Cit-Gln-Tyr-Phe-Pip-ala-Ile-Leu-Cys]-NH2] ({Pentanoyl(4-Me)}-C[Cit]QYF[Pip][dA]ILC-NH2; disulfide 1-10) were, in that order, 1.58 to 10 nM and no less than 8.00.
The like results for `CCCCOC(=O)N[C@H]1CSSC[C@@H](C(N)=O)NC(=O)[C@H](CCC)NC(=O)[C@H]([C@@H](C)CC)NC(=O)[C@@H]2C[C@@H](O)CN2C(=O)[C@@H]2C[C@H](F)CN2C(=O)[C@H](Cc2ccccc2)NC(=O)[C@H](Cc2ccc(O)c(N)c2)NC(=O)[C@H](CCCNC(=O)CN2CCN(CC(=O)O)CCN(CC(=O)O)CCN(CC(=O)O)CC2)NC(=O)[C@H]([C@@H](C)O)NC1=O` [UPAR-234, Butoc-[Cys-Thr-Orn(DOTA)-Ay3-Phe-4Cfp-Hyp-Ile-Nva-Cys]-NHz] (Butoxycarbonyl-CT[Orn](DOTA)[Tyr(3-NH2)]F[Pro(cis-4-F)][Hyp]I[Nva]C-NH2; disulfide 1-10) were, in that order, less than 1.58 nM and no less than 8.00.
For the compound `CCCCCC(=O)N[C@@H](CC(=O)O)C(=O)N[C@@H](CC(C)C)C(=O)N[C@H]1CSSC[C@@H](C(N)=O)NC(=O)[C@H](CC(C)C)NC(=O)[C@H]([C@@H](C)CC)NC(=O)[C@H](C)NC(=O)[C@@H]2CCCN2C(=O)[C@H](Cc2ccccc2)NC(=O)[C@H](Cc2ccc(O)cc2)NC(=O)[C@H](CCSC)NC(=O)[C@H](CCCCNC(=O)CN2CCN(CC(=O)O)CCN(CC(=O)O)CCN(CC(=O)O)CC2)NC1=O` [UPAR-235, Hex-Asp-Leu-[Cys-Lys(DOTA)-Met-Tyr-Phe-Pro-Ala-Ile-Leu-Cys]-NH2] (Hexanoyl-DLCK(DOTA)MYFPAILC-NH2; disulfide 3-12), the Kd in test [1] was less than 1.58 nM. In test [2], this compound showed a pIC50 of no less than 8.00.
Take `CCCCC(=O)N[C@H]1CSSC[C@@H](C(N)=O)NC(=O)[C@H](CCC)NC(=O)[C@H]([C@@H](C)CC)NC(=O)[C@@H]2C[C@@H](O)CN2C(=O)[C@@H]2CCCN2C(=O)[C@H](Cc2ccccc2)NC(=O)[C@H](Cc2ccc(O)cc2)NC(=O)[C@H](CCC(N)=O)NC(=O)CNC1=O` [UPAR-236, Pent-[Cys-Gly-Gln-Tyr-Phe-Pro-Hyp-Ile-Nva-Cys]-NH2] (Pentanoyl-CGQYFP[Hyp]I[Nva]C-NH2; disulfide 1-10): the Kd in test [1] is less than 1.58 nM. For the same compound, in test [2], the pIC50 was no less than 8.00.
Turning to `CCCCOC(=O)N[C@H]1CSSC[C@@H](C(N)=O)NC(=O)[C@H](CCC)NC(=O)[C@H]([C@@H](C)CC)NC(=O)[C@@H]2C[C@@H](O)CN2C(=O)[C@@H]2C[C@H](F)CN2C(=O)[C@H](Cc2ccccc2)NC(=O)[C@H](Cc2ccc(O)cc2)NC(=O)[C@H](CCCCNC(=O)CN2CCN(CC(=O)O)CCN(CC(=O)O)CCN(CC(=O)O)CC2)NC(=O)[C@H]([C@@H](C)O)NC1=O` [UPAR-237, Butoc-[Cys-Thr-Lys(DOTA)-Tyr-Phe-4Cfp-Hyp-Ile-Nva-Cys]-NH2] (Butoxycarbonyl-CTK(DOTA)YF[Pro(cis-4-F)][Hyp]I[Nva]C-NH2; disulfide 1-10), the Kd in test [1] is less than 1.58 nM. Besides, the pIC50 in test [2] was no less than 8.00.
For the compound `CCCC[C@@H]1NC(=O)[C@H](CCC(=O)O)NC(=O)[C@@H](NC(=O)[C@H](CC(C)C)NC(=O)[C@H](CC(=O)O)NC(C)=O)CSSC[C@@H](C(N)=O)NC(=O)[C@H](CC(C)C)NC(=O)[C@H]([C@@H](C)CC)NC(=O)[C@H](C)NC(=O)[C@@H]2CCCN2C(=O)[C@H](Cc2ccccc2)NC(=O)[C@H](Cc2ccc(O)cc2)NC1=O` [UPAR-239, Ac-Asp-Leu-[Cys-Glu-Nle-Tyr-Phe-Pro-Ala-Ile-Leu-Cys]-NH2] (Ac-DLCE[Nle]YFPAILC-NH2; disulfide 3-12), in test [1], the Kd was less than 1.58 nM. The same compound had a pIC50 in test [2] of no less than 8.00.
For the compound `CC[C@H](C)[C@@H]1NC(=O)[C@@H]2C[C@@H](O)CN2C(=O)[C@@H]2CCCN2C(=O)[C@H](Cc2ccccc2)NC(=O)[C@H](Cc2ccc(O)cc2)NC(=O)[C@H](CCCCNC(=O)CN2CCN(CC(=O)O)CCN(CC(=O)O)CCN(CC(=O)O)CC2)NC(=O)[C@H](CCCNC(N)=O)NC(=O)[C@@H](NC(=O)CCC(C)C)CSSC[C@@H](C(N)=O)NC(=O)[C@H](CC(C)C)NC1=O` [UPAR-240, iHex-[Cys-Cit-Lys(DOTA)-Tyr-Phe-Pro-Hyp-Ile-Leu-Cys]-NH2] ({Pentanoyl(4-Me)}-C[Cit]K(DOTA)YFP[Hyp]ILC-NH2; disulfide 1-10), the Kd in test [1] is less than 1.58 nM. For the same compound, the pIC50 in test [2] was no less than 8.00.
As for `CCCCNC(=O)N[C@H]1CSSC[C@@H](C(N)=O)NC(=O)[C@H](CCC)NC(=O)[C@H]([C@@H](C)CC)NC(=O)[C@@H]2C[C@@H](O)CN2C(=O)[C@@H]2CCCN2C(=O)[C@H](Cc2ccccc2)NC(=O)[C@H](Cc2ccc(O)cc2)NC(=O)[C@H](CCCCNC(=O)CN2CCN(CC(=O)O)CCN(CC(=O)O)CCN(CC(=O)O)CC2)NC(=O)[C@H]([C@@H](C)O)NC1=O` [UPAR-242, nBuCAyl-[Cys-Thr-Lys(DOTA)-Tyr-Phe-Pro-Hyp-Ile-Nva-Cys]-NHz] ({NHBu-CO}-CTK(DOTA)YFP[Hyp]I[Nva]C-NH2; disulfide 1-10), in test [1], the Kd is less than 1.58 nM. The compound also gave a pIC50 in test [2] of no less than 8.00.
Turning to `CC[C@H](C)[C@@H]1NC(=O)[C@@H](C)NC(=O)[C@@H]2CCCN2C(=O)[C@H](Cc2ccccc2)NC(=O)[C@H](Cc2ccc(O)cc2)NC(=O)[C@H](CCC(N)=O)NC(=O)[C@H](CCCNC(N)=O)NC(=O)[C@@H](NC(C)=O)CSSC[C@@H](C(N)=O)NC(=O)[C@H](CC(C)C)NC1=O` [UPAR-243, Ac-[Cys-Cit-Gln-Tyr-Phe-Pro-ala-Ile-Leu-Cys]-NH2] (Ac-C[Cit]QYFP[dA]ILC-NH2; disulfide 1-10), in test [1], the Kd was greater than 100 nM. Further, the pIC50 in test [2] was no more than 6.90.
As for `CCCC[C@@H]1NC(=O)[C@H](CCCNC(=N)N)NC(=O)[C@@H](NC(=O)[C@@H](CC(C)C)NC(=O)[C@H](CC(=O)O)NC(C)=O)CSSC[C@@H](C(N)=O)NC(=O)[C@H](CC(C)C)NC(=O)[C@H]([C@@H](C)CC)NC(=O)[C@H](C)NC(=O)[C@@H]2CCCN2C(=O)[C@H](Cc2ccccc2)NC(=O)[C@H](Cc2ccc(O)cc2)NC1=O` [UPAR-244, Ac-Asp-leu-[Cys-Arg-Nle-Tyr-Phe-Pro-Ala-Ile-Leu-Cys]-NH2] (Ac-D[dL]CR[Nle]YFPAILC-NH2; disulfide 3-12), the Kd in test [1] is less than 1.58 nM. Besides, in test [2], the pIC50 is no less than 8.00.
Consider `CCCCC(=O)N[C@H]1CSSC[C@@H](C(N)=O)NC(=O)[C@H](CCC)NC(=O)[C@H]([C@@H](C)CC)NC(=O)[C@@H]2C[C@@H](O)CN2C(=O)[C@@H]2CCCN2C(=O)[C@H](Cc2ccccc2)NC(=O)[C@H](Cc2ccc(O)cc2)NC(=O)[C@H](CCCCNC(=O)CN2CCN(CC(=O)O)CCN(CC(=O)O)CCN(CC(=O)O)CC2)NC(=O)[C@H](CCCNC(=O)CCCC(=O)NCCOCCOCCOCCOCCC(=O)NC(COCCC(=O)NCCOCCOCCOCCOCCOCCOCCOCCOCCOCCOCCOCCOC)(COCCC(=O)NCCOCCOCCOCCOCCOCCOCCOCCOCCOCCOCCOCCOC)COCCC(=O)NCCOCCOCCOCCOCCOCCOCCOCCOCCOCCOCCOCCOC)NC1=O` [UPAR-247, Pent-[Cys-Orn(TrisPEG)-Lys(DOTA)-Tyr-Phe-Pro-Hyp-Ile-Nva-Cys]-NH2], for which, in test [1], the Kd is 10 to 100 nM. Further, the pIC50 in test [2] was 7.50 to 7.90.
For `CCCCOC(=O)N[C@H]1CSSC[C@@H](C(N)=O)NC(=O)[C@H](CCC)NC(=O)[C@H]([C@@H](C)CC)NC(=O)[C@@H]2C[C@@H](O)CN2C(=O)[C@@H]2CCCN2C(=O)[C@H](Cc2ccccc2)NC(=O)[C@H](Cc2ccc(O)cc2)NC(=O)[C@H](CCCCNC(=O)CN2CCN(CC(=O)O)CCN(CC(=O)O)CCN(CC(=O)O)CC2)NC(=O)[C@H]([C@@H](C)O)NC1=O` [UPAR-248, Butoc-[Cys-Thr-Lys(DOTA)-Tyr-Phe-Pro-Hyp-Ile-Nva-Cys]-NH2] (Butoxycarbonyl-CTK(DOTA)YFP[Hyp]I[Nva]C-NH2; disulfide 1-10), in test [1], the Kd was less than 1.58 nM. The compound also had a pIC50 in test [2] of no less than 8.00.
For `CCCCOC(=O)N[C@H]1CSSC[C@@H](C(N)=O)NC(=O)[C@H](CCC)NC(=O)[C@H]([C@@H](C)CC)NC(=O)[C@@H]2C[C@@H](O)CN2C(=O)[C@@H]2C[C@H](F)CN2C(=O)[C@H](Cc2ccccc2)NC(=O)[C@H](Cc2ccc(O)c(O)c2)NC(=O)[C@H](CCCCNC(=O)CN2CCN(CC(=O)O)CCN(CC(=O)O)CC2)NC(=O)[C@H]([C@@H](C)O)NC1=O` [UPAR-250, Butoc-[Cys-Thr-Lys(NOTA)-Dopa-Phe-4Cfp-Hyp-Ile-Nva-Cys]-NH2] (Butoxycarbonyl-CTK(NOTA)[Dopa]F[Pro(cis-4-F)][Hyp]I[Nva]C-NH2; disulfide 1-10), the Kd in test [1] is less than 1.58 nM. Also, the negative logarithm of the IC50 (pIC50) in test [2] was no less than 8.00.
